Reference: US20090018111A1, “Novel Antimicrobial Medicament” (priority 2004, published 2009)
Like-named read-outs stand apart in the source and are kept apart here.

Assays:
P. aeruginosa TL-2666 = test: Sensitivity test (agar dilution); type: cell-based, Pseudomonas aeruginosa; details: Pseudomonas aeruginosa, P. aeruginosa TL-2666
Outline: (§1)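 Strains were grown overnight at 37° C, brought to about 10^6 CFU/ml in gelatin-buffered saline, and ~5 μl inoculated onto MHA plates carrying two-fold dilution series of the test drug alone or in combination, following the Japan Chemotherapeutic Society agar dilution standard.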

P. aeruginosa TL-2667 = test: Sensitivity test (agar dilution); type: cell-based, Pseudomonas aeruginosa; details: Pseudomonas aeruginosa, P. aeruginosa TL-2667
Outline: as §1

P. mirabiris GN2425 = test: Sensitivity test (agar dilution); type: cell-based, Proteus mirabilis; details: Proteus mirabilis, P. mirabiris GN2425
Outline: as §1

E. aerogenes ATCC13048 = test: Sensitivity test (agar dilution); type: cell-based, Enterobacter aerogenes; details: Klebsiella aerogenes, E. aerogenes ATCC13048
Outline: as §1

K. pneumoniae ATCC10031 = test: Sensitivity test (agar dilution); type: cell-based, Klebsiella pneumoniae; details: Klebsiella pneumoniae, K. pneumoniae ATCC10031
Outline: as §1

M. luteus ATCC9341 = test: Sensitivity test (agar dilution); type: cell-based, Micrococcus luteus; details: Micrococcus luteus, M. luteus ATCC9341
Outline: as §1

E. faecalis ATCC19433 = test: Sensitivity test (agar dilution); type: cell-based, Enterococcus faecalis; details: Enterococcus faecalis, E. faecalis ATCC19433
Outline: as §1

S. maltophilia IID1275 = test: Sensitivity test (agar dilution); type: cell-based, Stenotrophomonas maltophilia; details: Stenotrophomonas maltophilia, S. maltophilia IID1275
Outline: as §1

C. freundii GN346 = test: Sensitivity test (agar dilution); type: cell-based, Citrobacter freundii; details: Citrobacter freundii, C. freundii GN346
Outline: as §1

E. coli ML1410 RP4 = test: microbe, parasite or virus in culture; type: cell-based, Escherichia coli; details: Escherichia coli, E. coli ML1410 RP4
Outline: as §1

M. catarrhalis ATCC25238 = test: Sensitivity test (agar dilution); type: cell-based, Moraxella catarrhalis; details: Moraxella catarrhalis, M. catarrhalis ATCC25238
Outline: as §1

M. catarrhalis ATCC8176 = test: Sensitivity test (agar dilution); type: cell-based, Moraxella catarrhalis; details: Moraxella catarrhalis, M. catarrhalis ATCC8176
Outline: as §1

B. subtilis ATCC6633 = test: Sensitivity test (agar dilution); type: cell-based, Bacillus subtilis; details: Bacillus subtilis, B. subtilis ATCC6633
Outline: as §1

With `CC(C)(O/N=C(\C(=O)N[C@@H]1C(=O)N2C(C(=O)[O-])=C(C[n+]3ccccc3)CS[C@H]12)c1csc(N)n1)C(=O)O` [CAZ, ceftazidime] the MIC (P. aeruginosa TL-2666; TL2666, Concomitant (CAZ:SM = 1:1), read-out: MIC concomitant) was 8 µg/mL, the MIC (P. aeruginosa TL-2666; TL2666, drug alone, read-out: MIC alone) was 0.5 µg/mL and the MIC (P. aeruginosa TL-2667; TL2667, Concomitant (CAZ:SM = 1:1), read-out: MIC concomitant) was 8 µg/mL. For the same molecule, the MIC (P. aeruginosa TL-2667; TL2667, drug alone, read-out: MIC alone) was 1 µg/mL, the MIC (P. mirabiris GN2425; GN2425, Concomitant (CAZ:SM = 1:1), read-out: MIC concomitant) was 0.031 µg/mL and the MIC (P. mirabiris GN2425; GN2425, drug alone, read-out: MIC alone) was 0.063 µg/mL. It also gave an MIC (E. aerogenes ATCC13048; ATCC13048, Concomitant (CAZ:SM = 1:1), read-out: MIC concomitant) of 8 µg/mL, an MIC (E. aerogenes ATCC13048; ATCC13048, drug alone, read-out: MIC alone) of 0.5 µg/mL and an MIC (K. pneumoniae ATCC10031; ATCC10031, Concomitant (CAZ:SM = 1:1), read-out: MIC concomitant) of 0.008 µg/mL. For the same molecule, the MIC (K. pneumoniae ATCC10031; ATCC10031, drug alone, read-out: MIC alone) was 0.031 µg/mL, the MIC (M. luteus ATCC9341; ATCC9341, Concomitant (CAZ:SM = 1:1), read-out: MIC concomitant) was no more than 0.002 µg/mL and the MIC (M. luteus ATCC9341; ATCC9341, drug alone, read-out: MIC alone) was 1 µg/mL. It also gave an MIC (E. faecalis ATCC19433; ATCC19433, Concomitant (CAZ:SM = 1:1), read-out: MIC concomitant) of 1 µg/mL, an MIC (E. faecalis ATCC19433; ATCC19433, drug alone, read-out: MIC alone) greater than 32 µg/mL and an MIC (S. maltophilia IID1275; IID1275, Concomitant (CAZ:SM = 1:1), read-out: MIC concomitant) greater than 32 µg/mL. For the same molecule, the MIC (S. maltophilia IID1275; IID1275, drug alone, read-out: MIC alone) was greater than 32 µg/mL, the MIC (C. freundii GN346; GN346, Concomitant (CAZ:SM = 1:1), read-out: MIC concomitant) was 8 µg/mL and the MIC (C. freundii GN346; GN346, drug alone, read-out: MIC alone) was 1 µg/mL. It also gave an MIC (E. coli ML1410 RP4; ML1410RP4, read-out: MIC alone, drug alone) of 0.5 µg/mL, an MIC (E. coli ML1410 RP4; ML1410RP4, read-out: MIC concomitant, Concomitant (CAZ:SM = 1:1)) of 0.125 µg/mL and an MIC (M. catarrhalis ATCC25238; ATCC25238, Concomitant (CAZ:SM = 1:1), read-out: MIC concomitant) of no more than 0.002 µg/mL. The MIC (M. catarrhalis ATCC25238; ATCC25238, drug alone, read-out: MIC alone) was 0.016 µg/mL, the MIC (M. catarrhalis ATCC8176; ATCC8176, Concomitant (CAZ:SM = 1:1), read-out: MIC concomitant) was no more than 0.002 µg/mL and the MIC (M. catarrhalis ATCC8176; ATCC8176, drug alone, read-out: MIC alone) was 0.016 µg/mL. The MIC (B. subtilis ATCC6633; ATCC6633, Concomitant (CAZ:SM = 1:1), read-out: MIC concomitant) was no more than 0.002 µg/mL and the MIC (B. subtilis ATCC6633; ATCC6633, drug alone, read-out: MIC alone) was 2 µg/mL.
